A short description of data set [1]: Biorelevant solubility (FaSSGF, FaSSIF, FeSSIF). The format is physicochemical. The conditions noted are these: thermodynamic from solid, compared with reported water solubility. The method, then: The three biorelevant fluids of fasted state simulated gastric fluid (FaSSGF, pH 1.6), fasted state simulated intestinal fluid (FaSSIF, pH 6.5) and fed state simulated intestinal fluid (FeSSIF, pH 5.0) were prepared according to previously reported compositions. The test mixtures containing biorelevant fluids and excessive amount of cordycepin were shaken at 250 rpm, 37 °C for 2 h in the shaking incubator. The mixtures were then filtered using Costar Spin-X Centrifuge Tubes (Fisher Scientific, Loughborough, UK) at 2400 g for 5 min. The filtrate was subjected to analysis by HPLC-UV. The experiments were conducted in quadruplicates.
Samples from studies of plasma stability, protein binding, biorelevant solubility and liver microsomal stability were subjected to liquid-liquid extraction and HPLC-UV analysis. To 100 µL of sample, internal standard (2′-deoxyadenosine) was spiked at 10 µg/mL and 300 µL of 0.1 M NaOH was added. Extraction solvent (3 mL) of ethyl acetate-isopropyl alcohol (85:15, v/v) was added and vortex-mixed for 10 min. Samples were then centrifuged at 1160 g for 5 min and the supernatant was transferred and dried under N2 gas. Dried samples were reconstituted with 100 uL of deionised distilled water (DDW) and 40 µL was injected into the HPLC-UV. The HPLC-UV setup was adopted from a validated method[22] with addition of a gradient scheme to elute the impurities from samples. Waters Alliance 2695 module with Waters 996 PDA detector was used for the HPLC-UV system with Capcell Pak C18 3 µm, 4.6 × 150 mm as the stationary phase. Mobile phase was a mixture of acetonitrile (A) and DDW (B) at flow rate 0.8 mL/min with a gradient scheme of the following: 0–9 min, B 94%; 9–14 min, B decreased to 20%; 14–24 min, B 20%; 24–26 min, B increased to 94%; and 26–35 min, B 94%. Calibration curves were constructed at a range of 10 – 20000 ng/mL and chromatograms were obtained at 259 nm of wavelength.

Data set [2] can be described thus: Caco-2 permeability. The format is in vitro ADME. The conditions noted are these: human, Caco-2; read-out: apparent permeability coefficient (Papp), A to B. On the procedure:
(§1) Caco-2 permeability assays were conducted following previously reported methods with 21-day maintenance on the Corning 24-well Transwell® (Fisher Scientific, Loughborough, UK)[48]. […] Both directions of apical-to-basolateral and basolateral-to-apical were tested. […] The experiments were conducted in triplicates.
(§2) Samples from Caco-2 permeability, in vitro determination of CordyTP formation and in vivo experiments were subjected to protein precipitation followed by LC-MS/MS analysis. To 50 µL of rat plasma sample, 150 µL of internal standard solution (1.67 µg/mL 2-chloroadenosine in methanol) was added. The samples were then vortex-mixed for 10 s and were centrifuged for 3 min at 17949 g. Supernatant (20 µL) was collected and diluted 10-fold with DDW before injection into the LC-MS/MS for analysis of cordycepin and 3′-deoxyinosine. For analysis of CordyTP, the supernatant was filtered using filter tubes mentioned above and injected without dilution. Tissue samples were homogenised using Bullet Blender Gold (Next Advance, Inc., Troy, NY) in methanol (1:3 w/v) and centrifuged for 3 min at 17949 g. The supernatant was filtered and injected for analysis of CordyTP or diluted 10-fold with DDW for analysis of cordycepin and 3′-deoxyinosine. The LC-MS/MS system was a API4000 QTrap (AB Sciex, Warrington, UK) equipped with HPLC setup of SCL10Avp controller, LC10ADvp pump and SILHTC autosampler (Shimadzu, Milton Keynes, UK). Three different methods were utilised for each compound and multiple reaction monitoring parameters of the MS/MS conditions are shown in Table 1. The HPLC conditions including stationary phases and specific mass spectrometry parameters are shown in Supplementary Information 2. The LC-MS/MS method for cordycepin was fully validated in terms of accuracy, precision, sensitivity, selectivity, linearity and sample storage stability in accordance with the Guidance for Industry, Bioanalytical Method Validation, (2018) published by the US FDA (refer to Supplementary Information 3 for validation procedures and results)[53].
(Passage across Caco-2 layers is used to estimate intestinal permeability.)

In data set [3] the test system is Caco-2 cells. Put plainly: Caco-2 permeability. It is filed as in vitro ADME. On the procedure: as §1, §2
Data set [4] relates to RAW264.7 cells. As to the kind of experiment: Repression of inflammatory gene expression in LPS-stimulated RAW264.7 cells (qPCR). The format is cell-based, mouse. The conditions noted are these: 20 µM, 1 h prior to LPS stimulation. On the procedure:
RAW 264.7 mouse macrophage cells were cultured in DMEM supplemented with 10% FBS. Prior to experiments, cells were washed with PBS and cells were maintained in DMEM with 0.5% FBS or 10% FBS for 24 h. LPS was added at 1 µg/mL, 1 h before compound treatment, when needed. When the cells were analysed for concentration levels of cordycepin, 3′-deoxyinosine and CordyTP, the cells were washed twice with PBS. The cells were then treated with methanol and mixed vigorously before the mixture was harvested. The mixture was filtered using filter tubes mentioned above and the filtrate was analysed by liquid chromatography coupled with tandem mass spectrometry (LC-MS/MS). For determination of relative mRNA levels, RNA was isolated from the lysates using an RNA isolation kit, following manufacturer’s protocol (Promega, Madison, WI, cat no. Z6012). RNA was reverse transcribed to cDNA using SuperScript™ III reverse transcriptase (Invitrogen, Carlsbad, CA). Quantitative polymerase chain reaction (qPCR), was performed with Qiagen Rotor-Gene Q qPCR machine (Qiagen, Hilden, Germany) using Promega SYBR Green GoTaq® qPCR master mix (Promega).
Figure 3 Repression effect on inflammatory gene expression. (a) NBTI or ITu treatment prior to cordycepin treatment suppresses effect of cordycepin. RAW264.7 cells were treated with 10 µM NBTI, 100 nM ITu or DMSO (Ctrl, control) 15 min prior to cordycepin treatment. The cells were stimulated with LPS 1 h after cordycepin treatment (mean ± SD, n = 3). **p < 0.01; ***p < 0.001 compared to DMSO treatment (labelled as Ctrl). (b) 3′-deoxyinosine exerts same repression effect as cordycepin, although to a lesser degree. RAW264.7 cells were treated with 20 µM cordycepin, 20 µM 3′-deoxyinosine (3DI) or DMSO (Ctrl, control) for 1 h prior to LPS stimulation (mean ± SD, n = 3). **p < 0.01; ***p < 0.001 compared to without compound treatment (labelled as LPS).

The structures appear in SMILES notation. Read-outs that look alike come from different tables or passages of the source.

For `Nc1ncnc2c1ncn2[C@@H]1O[C@H](CO)C[C@H]1O` [cordycepin, 3′-deoxyadenosine], the solubility at 2 h in data set [1] (FaSSGF, fassgf or other biorelevant, pH 1.6, 37 °C, read-out: solubility in FaSSGF) was above 5000 µg/mL; in data set [1] (FaSSIF, pH 6.5, 37 °C, read-out: solubility in FaSSIF), above 5000 µg/mL; in data set [1] (FeSSIF, pH 5.0, 37 °C, read-out: solubility in FeSSIF), above 5000 µg/mL. Also, the apical-to-basolateral permeability (Papp A→B) at 120 min, 200 µM in data set [2] is 0.11 ± 0.01 ×10⁻⁶ cm/s. In addition, the results for the “cordycepin remaining in donor chamber at 120 min” value in data set [3] (applied to apical side with pentostatin), in data set [3] (applied to apical side without pentostatin) and in data set [3] (applied to basolateral side without pentostatin) were “remained stable”, “significantly degraded” and “remained stable”, respectively. In data set [3] (cordycepin 200 µM without pentostatin, A to B and B to A), the permeation of cordycepin result is “not detected”. For the same compound, the “effect on expression of inflammatory genes” value in data set [4] is recorded as “inhibitory effect”.

For orientation: solubility means how much of the substance goes into solution per volume. As usually defined, the Papp A→B is how fast a substance crosses the layer from the apical side.

Source of the values: paper PMC6823370, “A novel nucleoside rescue metabolic pathway may be responsible for therapeutic effect of orally administered cordycepin” (Scientific Reports, 2019).
